Source: patent publication US10703698B2, “Compounds which activate estrogen receptors and compositions and methods of using the same” (The Board of Trustees of the University of Illinois, priority 2016, dated 2020)
Entries after “also recorded” stand apart in the source; their conditions may differ. Values belong to the compound of their own block, whether it stands above or below them.

Experiments:
[1] = system: ovariectomized C57BL/6 mice; assay: ovariectomized mice: uterus, thymus and mammary gland effects
MCF-7 cells [2] = assay: RNA-Seq transcriptional profiling of MCF-7 cells; type: cell-based, human; conditions: for number of genes regulated: 10 nM E2 or 1 μM PaPE-1
Protocol: For gene expression analysis, total RNA was extracted from 3 biological replicates for each ligand treatment using Trizol reagent and further cleaned using the RNAeasy kit (QIAGEN). […] Once the sample quality and replicate reproducibility were verified, 2 samples from each group were subjected to sequencing. RNA at a concentration of 100 ng/μL in nuclease-free water was used for library construction. cDNA libraries were prepared with the mRNA-TruSeq Kit (Illumina, Inc.). Briefly, the poly-A containing mRNA was purified from total RNA, RNA was fragmented, double-stranded cDNA was generated from fragmented RNA, and adapters were ligated to the ends.
The paired-end read data from the HiSeq 2000 were processed and analyzed through a series of steps. Base calling and de-multiplexing of samples within each lane were done with Casava 1.8.2. FASTQ files were trimmed using FASTQ Trimmer (version 1.0.0). TopHat2 (version 0.5) was employed to map paired RNA-Seq reads to version hg19 of the Homo sapiens reference genome in the UCSC genome browser in conjunction with the RefSeq genome reference annotation. Gene expression values (raw read counts) from BAM files were calculated using StrandNGS (version 2.1) Quantification tool. Partial reads were considered and option of detecting novel genes and exons was selected. Default parameters for finding novel exons and genes were specified. DESeq normalization algorithm using default values was selected. Differentially expressed genes were then determined by fold-change and p-value with Benjamini and Hochberg multiple test correction for each gene for each treatment relative to the vehicle control. Genes with fold-change >2 and p-value <0.05 were considered as statistically significant, differentially expressed. All RNA-Seq datasets have been deposited with the NCBI under GEO accession number GSE73663.

[3] = system: ovariectomized C57BL/6 mice; assay: stroke model, transient middle cerebral artery occlusion (tMCAo)
ovariectomized mice = assay: carotid artery reendothelialization after perivascular electric injury; type: in vivo
Protocol: Carotid artery reendothelialization was studied following perivascular electric injury in mice by assessing Evans blue dye uptake 72 h after injury. Endothelial denudation and recovery after injury in this model have been confirmed by immunohistochemistry for von Willebrand Factor. […] Carotid artery denudation was performed 21d later. In select studies additional treatments included subcutaneous injections of vehicle or ICI 182,780 (360 μg/mouse) administered 3d prior to carotid injury and on the day of injury. At the end of the study, uteri were also harvested and weighed.

ERα-SRC3 interaction = assay: tr-FRET assay of SRC3 coactivator binding to ERα; type: biochemical; conditions: 10 nM E2-ERα complex
Text: Using a time-resolved Forster resonance energy transfer (tr-FRET) assay, the binding of the steroid receptor coactivator 3 (SRC3) to ERu was monitored.

LRRC54 gene vs PgR gene = assay: preferential activation of non-genomic (LRRC54) over genomic (PgR) gene; conditions: relative to activation by E2
MCF-7 cells [4] = assay: oleic acid (OA)-induced MCF-7 cell proliferation, WST1; conditions: for OA-induced MCF-7 cell proliferation with added agent: 100 nM OA, agent 1 μM, 6 days
PgR gene = assay: PgR (genomic gene) mRNA expression, qPCR; conditions: MCF-7 cells; 1 μM PaPE or 10 nM E2 for 4 h where stated; versus vehicle or E2
MCF-7 cells [5] = assay: MCF-7 proliferation in serum from obese individuals or standard culture; conditions: 1 μM, six days
[6] = system: ERα recruitment to chromatin; assay: ERα ChIP-Seq of MCF-7 cells treated with OA with or without PaPE-1; type: cell-based, human; conditions: 100 nM OA, 45 minutes
Protocol: FIG. 39. ERα chromatin binding sites induced by OA and the effect of PaPE-1 in reversing these changes in the ERα cistrome. (A) Recruitment of ERα to chromatin in the presence of PaPE-1, OA and OA+PaPE-1. MCF-7 cells were treated with Veh and 100 nM OA with or without 1 μM PaPE-1 for 45 minutes. ERα-DNA complexes were pulled down using ERα antibodies. Three biological replicates were pooled and sequenced. Clustering of ERα binding sites in treatments of Veh (0.1% EtOH), PaPE-1 (1 μM), OA (100 nM), and OA (100 nM)+PaPE-1 (1 t.M) was done using seqMINER software. (B) Validation of effect of OA and PaPE-1 on the ERα binding at regulatory region of PgR, CISH and SREBP1C using ChIP-qPCR. MCF-7 cells were treated with Veh and 100 nM OA with or without 1 μM PaPE-1 for 45 minutes. ERα-DNA complexes were pulled down using ERα antibodies. Recruitment of ERα to PgR (chr11:100,904,522-100,905,458), CISH (chr3:50,642,336-50,643,191) and SREBP1 (chr17:17,743,329-17,743,912) sites were quantified by Q-PCR. The experiment was repeated 3 times with at least duplicates each time. Mean±SEM is plotted. […] Mean±SEM is plotted. (C) Binding sites whose ERα occupation increased upon OA treatment (cluster marked by * in B). The ERα binding sites were separated into four clusters of characteristic patterns: C1, C2, C3 and C4. […]

mTOR pathway = assay: OA-induced mTOR pathway activation in MCF-7 cells, western blot; conditions: 100 nM OA, time course
MCF-7 cells [7] = assay: RNA-Seq of MCF-7 cells treated with OA with and without PaPE-1; type: cell-based, human; conditions: 100 nM OA, 24 h
Protocol: FIG. 38. Identification of genes induced by OA and PaPE-1's effect on the gene regulation. (A) RNA-Seq analysis of gene expression changes induced by OA and OA+PaPE1. Heat map of the genes with significant changed expression. MCF-7 cells were treated with Veh or 100 nM OA with and without 1 μM PaPE-1 for 24 h. RNA was isolated and RNA-Seq was performed using 2 samples from each treatment group. Differentially regulated genes were determined with p<0.05 and expression fold change >2. (B) Clusters from A. regulated by OA and reversed by PaPE-1. The average gene expression level of the cluster1 (C1) and 2 (C2) identified as PaPE-1 regulated high-fat genes. In C1, there are 425 genes whose expression were found stimulated in OA but not in the OA+PaPE-1 treatment. In C2, there are 646 genes whose expression were found suppressed in the OA but restored by OA+PaPE-1 treatment. (C) Venn diagram analysis. […] (D) Examples of OA-regulated genes. Some of the top functions of the involved genes are presented.

[8] = target: T1, purified full-length human ERα (Homo sapiens, UniProt P03372); assay: competitive radiometric binding assay, relative binding affinity (RBA); conditions: relative to estradiol = 100
T1 construct: using purified full-length human ERα and ERβ
T1 sequence (P03372 1-595): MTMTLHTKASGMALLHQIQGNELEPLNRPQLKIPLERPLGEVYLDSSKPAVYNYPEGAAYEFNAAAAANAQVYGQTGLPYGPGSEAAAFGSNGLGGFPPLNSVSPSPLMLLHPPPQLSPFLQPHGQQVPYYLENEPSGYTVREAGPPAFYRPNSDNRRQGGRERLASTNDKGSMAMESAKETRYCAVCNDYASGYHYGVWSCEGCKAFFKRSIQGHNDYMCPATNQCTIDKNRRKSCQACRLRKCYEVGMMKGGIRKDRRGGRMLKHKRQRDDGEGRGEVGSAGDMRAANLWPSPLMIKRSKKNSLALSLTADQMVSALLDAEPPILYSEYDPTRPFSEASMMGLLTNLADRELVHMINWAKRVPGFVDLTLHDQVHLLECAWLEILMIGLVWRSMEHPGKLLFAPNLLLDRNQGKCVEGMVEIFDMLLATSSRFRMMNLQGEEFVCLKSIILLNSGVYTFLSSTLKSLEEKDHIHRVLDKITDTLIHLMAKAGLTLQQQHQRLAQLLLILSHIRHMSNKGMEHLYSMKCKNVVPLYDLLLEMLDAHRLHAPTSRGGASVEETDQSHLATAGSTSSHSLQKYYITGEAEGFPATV
Text: (§1) FIG. 1. […] […]

[9] = target: T2, purified full-length human ERβ (Homo sapiens, UniProt Q92731); assay: as above; conditions: relative to estradiol = 100
T2 construct: using purified full-length human ERα and ERβ
Text: as §1

eNOS = eNOS activation in primary endothelial cells (14C-L-arginine to 14C-L-citrulline); type: cell-based, bovine
LRRC54 gene = assay: LRRC54 (non-genomic gene) mRNA expression, qPCR; conditions: MCF-7 cells, 1 μM ICI pretreatment, 1 μM PaPE-1

T2 sequence (Q92731 whole entry): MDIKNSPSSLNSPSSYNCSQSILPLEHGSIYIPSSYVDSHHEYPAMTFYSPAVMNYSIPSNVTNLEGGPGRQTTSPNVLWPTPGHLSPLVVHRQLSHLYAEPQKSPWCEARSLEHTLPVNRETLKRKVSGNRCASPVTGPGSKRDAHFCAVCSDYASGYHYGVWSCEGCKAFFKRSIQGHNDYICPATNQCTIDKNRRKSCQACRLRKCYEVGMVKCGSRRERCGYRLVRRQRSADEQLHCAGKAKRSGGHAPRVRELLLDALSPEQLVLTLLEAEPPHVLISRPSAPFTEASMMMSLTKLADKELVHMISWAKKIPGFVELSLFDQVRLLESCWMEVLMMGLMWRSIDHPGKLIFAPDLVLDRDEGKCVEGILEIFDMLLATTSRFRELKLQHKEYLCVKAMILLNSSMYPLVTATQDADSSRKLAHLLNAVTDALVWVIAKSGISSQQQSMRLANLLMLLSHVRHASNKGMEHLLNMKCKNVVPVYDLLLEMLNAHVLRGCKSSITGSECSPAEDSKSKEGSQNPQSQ

- mammary gland ductal morphology ([1]; 3 weeks): elicited marked ductal growth
- uterine wet weight ([3]; compared with vehicle): caused an increase in uterine wet weight
Compound: C[C@]12CC[C@@H]3c4ccc(O)cc4CC[C@H]3[C@@H]1CC[C@@H]2O [Compound E2, estradiol, reference compound]
- uterine weight ([1]; E2 5 μg/day, PaPE up to 300 μg/day): very effective in increasing growth of the uterus; also recorded: markedly increased
- regulated genes blocked by MAPK inhibitor AZD6244 (MCF-7 cells [2]; 1 μM AZD6244, 4 h): 23%
- regulated genes blocked by mTOR pathway inhibitor PP242 (MCF-7 cells [2]; 1 μM PP242, 4 h): 40%
- number of genes regulated (MCF-7 cells [2]; 4 h): ~1500 genes
- number of genes regulated (MCF-7 cells [2]; 24 h): about 3000 genes
- reduction of leukocytes infiltrated in the brain ([3]; 3 days post-stroke): 63%
- uterine weight in reendothelialization study (ovariectomized mice; mouse, in vivo): greatly elevated; also recorded: increases uterine weight

Compound: CC/C(=C(\c1ccc(O)cc1)c1ccc(OCCN(C)C)cc1)c1ccccc1 [OH-Tam, trans-hydroxytamoxifen, reference compound]
- reversal of the E2-promoted ER-SRC3 interaction (ERα-SRC3 interaction): reversed the ER-SRC3 interaction promoted by E2
- preference for activation of the non-genomic pathway (LRRC54 over PgR), in words (LRRC54 gene vs PgR gene): Neither Raloxifene (RAL) nor hydroxytamoxifen (TOT) show selective activation of the non-genomic gene LRRC54
- OA-induced MCF-7 cell proliferation with added agent (MCF-7 cells [4]; listed as 4-OH-Tamoxifen): blocked OA-induced cell proliferation; also recorded: suppressed
- PgR (genomic gene) mRNA expression, in words (PgR gene): slight stimulation of the PgR gene
- inhibition of MCF-7 proliferation in normal cell culture conditions (MCF-7 cells [5]): better agents

Compound: CCCCCCCC/C=C\CCCCCCCC(=O)O [OA, oleic acid]
- ERα recruitment to chromatin upon OA [6]: recruited to novel chromatin sites upon OA treatment
- mTOR pathway activation by OA (mTOR pathway): robust activation of mTOR pathway downstream targets Akt, S6 and 4EBP1
- MCF-7 cell proliferation with free fatty acid (MCF-7 cells [4]; 1 and 100 nM): very efficient in increasing cell proliferation in MCF-7 cells
- genes downregulated by OA (MCF-7 cells [7]): about 500 genes
- genes upregulated by OA (MCF-7 cells [7]): about 350 genes

- ERα RBA (relative binding affinity) [8]: 0.002 ± 0.001
- ERβ RBA (relative binding affinity) [9]: 0.005 ± 0.003
Compound: Cc1cc(-c2ccc(C(C)O)cc2)cc(C)c1O (stereo not drawn) [Compound 15, 4′-(1-hydroxyethyl)-3,5-dimethyl-[1,1′-biphenyl]-4-ol]
- preference for activation of the non-genomic pathway (LRRC54 over PgR), in words (LRRC54 gene vs PgR gene): some selectivity for the non-genomic gene but less than that of compound 2
- eNOS / NOS activity (eNOS; 15 min, 10 nM ligand (FIG. 9E)): increased NOS activity

Compound: C[C@]12CC[C@@H]3c4ccc(O)cc4C[C@@H](CCCCCCCCC[S+]([O-])CCCC(F)(F)C(F)(F)F)[C@H]3[C@@H]1CC[C@@H]2O (stereo partly drawn) [ICI 182,780, Fulvestrant]
- OA-induced MCF-7 cell proliferation with added agent (MCF-7 cells [4]): blocked OA-induced cell proliferation; also recorded: suppressed
- eNOS / NOS stimulation by E2 and PaPEs with antiestrogen (eNOS; 1 μM ICI 182,780, listed as ICI): fully attenuated; also recorded: fully blocked
- activation of LRRC54 gene expression by PaPE-1 in presence of antiestrogen (LRRC54 gene): blocked
- inhibition of MCF-7 proliferation in normal cell culture conditions (MCF-7 cells [5]): better agents
- endothelial repair responses elicited by E2 and PaPE-1 with antiestrogen (ovariectomized mice; ICI 182,780 360 μg/mouse): fully prevented
- uterine stimulation by E2 with antiestrogen (ovariectomized mice; mouse, in vivo): blocked uterine stimulation by E2

Compound: CO[C@H]1C[C@@H]2CC[C@@H](C)[C@@](O)(O2)C(=O)C(=O)N2CCCC[C@H]2C(=O)O[C@H]([C@H](C)C[C@@H]2CC[C@@H](OCCO)[C@H](OC)C2)CC(=O)[C@H](C)/C=C(\C)[C@@H](O)[C@@H](OC)C(=O)[C@H](C)C[C@H](C)/C=C/C=C/C=C/1C [RAD001]
- OA-induced MCF-7 cell proliferation with added agent (MCF-7 cells [4]): blocked OA-induced cell proliferation; also recorded: suppressed
